The text below walks through data of publication PMC10458307, “New Scaffolds of Proteasome Inhibitors: Boosting Anticancer Potential by Exploiting the Synergy of In Silico and In Vitro Methodologies” (Pharmaceuticals, 2023).

Where “and” joins values, the source holds several entries; their conditions need not be identical. Equal values may be shown once.

Data set [1] is described as follows: Cell viability, MTT assay, HCT116. Type of data set: cell-based, human. As to conditions: human, HCT116 colorectal carcinoma cells; for viability at 72 h, 10 µM: at 10 µM, read-out: percentage of cell viability, MTT, HCT-116; for viability at 72 h, 100 µM: at 100 µM, read-out: percentage of cell viability, MTT, HCT116. On the procedure:
(§1) Whenever possible, additional concentrations were tested and IC50 values were determined.
(§2) Human leukemia Jurkat E6.1 T-cell line and K562-cell line were originally obtained from ATCC Collections (Manassas, VA, USA); human HT-29 and HCT116 colorectal carcinoma-cell lines were obtained from ECACC (Porton Down, Porton, UK). Cells were passaged for less than 6 months after and routinely tested for mycoplasma contamination using Mycoalert detection kit (Lonza, Basel, Switzerland). Jurkat, K562, and HT-29 cells were maintained in Roswell Park Memorial Institute (RPMI) 1640 with GlutaMAX™, supplemented with 1% antibiotic mixture (100 µg/mL streptomycin and 100 U/mL penicillin) and 10% heat-inactivated foetal bovine serum (FBS) (all from Gibco, Thermo Fisher Scientific, Paisley, UK). HCT116 cells were maintained in Dulbecco’s Modified Eagle Medium (DMEM) with GlutaMAX™, supplemented with 1% antibiotic mixture (100 µg/mL streptomycin and 100 U/mL penicillin) and 10% heat-inactivated FBS (all from Gibco, Thermo Fisher Scientific, Paisley, UK). Incubation was performed at 37 °C in a 5% CO2 atmosphere. Cells were routinely passaged every 2 or 3 days at 70–90% confluence; TrypLE Express (Gibco, Thermo Fisher Scientific, Paisley, UK) was used as dissociation agent for adherent cells. Trypan blue (Gibco, Thermo Fisher Scientific, Paisley, UK) was used to assess cell viability using the dye exclusion test.
(§3) To assess cell viability, the MTT assay was performed. Jurkat/K562/HT-29/HCT116 cell lines were seeded in triplicate (10,000 cells/well) in 96-well plates with 50 µL of complete medium and incubated at 37 °C, 5% CO2 for 24 h to allow the cells to adhere to the plate (in the case of adherent cells). […] Untreated cells seeded in triplicate were used as control. The blank was performed in triplicate with 100 µL of culture medium. The cells were incubated with the compounds, in triplicate, in 100 µL of total volume, at 37 °C, 5% CO2 for 72 h. […] In suspension cells (Jurkat), 25 µL of MTT were directly added to each well and, after 3 h 30 m of incubation, 100 µL of DMSO were added to solubilize the formazan crystals; in adherent cells (HT-29 and HCT116), the culture medium was removed, 25 µL of MTT were added to each well and, after 3 h 30 m of incubation, upon MTT removal, 100 µL of DMSO were added to solubilize the formazan crystals. After 15 min, the samples absorbance was measured at 570 nm and the percentage of cell viability was determined.

A further data set relates to HCT116 cells. Description: Cell viability, MTT assay, HCT116. Type of data set: cell-based, human. The settings on record: 72 h; for IC50: Homo sapiens, HCT-116, mean ± SD; for percentage of cell viability, MTT, HCT116: at 100 µM. On the procedure: as §1, §2, §3
Another data set relates to Jurkat cells. Put plainly: Cell viability, MTT assay, Jurkat. Format: cell-based, human. The settings on record: 72 h; for IC50: Homo sapiens, Jurkat, mean ± SD; for percentage of cell viability, MTT, Jurkat: at 100 µM. As to the method: as §1, §2, §3
Data set [2] is described as follows: Cell viability, MTT assay, Jurkat. Format: cell-based, human. As to conditions: human, Jurkat E6.1 T-cell leukemia cells, read-out: percentage of cell viability, MTT, Jurkat; for viability at 72 h, 10 µM: at 10 µM; for viability at 72 h, 100 µM: at 100 µM. On the procedure:
as §1, §2, §3

The target of data set [3] is T1, 20S proteasome in HT-29 cell lysates, C-L activity (Homo sapiens, UniProt P28072).
T1 sequence (P28072 35-239 limits assumed): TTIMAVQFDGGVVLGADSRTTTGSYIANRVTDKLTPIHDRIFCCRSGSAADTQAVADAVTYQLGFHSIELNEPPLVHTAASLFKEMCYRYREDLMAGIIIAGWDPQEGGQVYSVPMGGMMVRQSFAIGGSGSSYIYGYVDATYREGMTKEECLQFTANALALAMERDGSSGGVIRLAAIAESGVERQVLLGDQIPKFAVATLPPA
T1 sequence (Q99436 44-277 partner): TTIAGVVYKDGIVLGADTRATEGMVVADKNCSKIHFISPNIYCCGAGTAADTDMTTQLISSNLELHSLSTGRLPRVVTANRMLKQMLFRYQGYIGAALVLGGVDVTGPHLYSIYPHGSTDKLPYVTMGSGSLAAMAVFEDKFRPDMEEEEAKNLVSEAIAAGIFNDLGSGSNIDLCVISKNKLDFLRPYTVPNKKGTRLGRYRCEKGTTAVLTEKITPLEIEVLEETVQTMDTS
Description: Proteasome inhibition assay in cell lysates, HT-29, C-L. As to conditions: for inhibition at 10 µM: read-out: percentage of proteasome inhibition, C-L, cell lysates HT-29, at 10 µM; for inhibition at 100 µM: read-out: percentage of proteasome inhibition, C-L, cell lysates HT-29, at 100 µM.
Description: (§4) Cells were obtained from several cultured cell lines: Jurkat, K562, HT-29, and HCT116. Pellets with 20 × 10^6 cells were prepared and washed with cold sterile phosphate buffered saline (PBS), 1×, pH 7.4 (Gibco, Thermo Fisher Scientific, Paisley, UK). […] Cells were resuspended in buffer containing 50 mM TRIS-HCl pH 7.4 (Nzytech, Lisboa, Portugal), 5 mM MgCl2 (≥98% purity, Merck, Hamburg, Germany), 1 mM DTT (Merck, Hamburg, Germany), 2 mM ATP (≥98% purity, Enzo Life Sciences Inc., Farmingdale, NY, USA), and 250 mM saccharose (Merck, Hamburg, Germany). Glass beads (Merck, Hamburg, Germany) equivalent to the volume of the cell suspension were added, and the mixture was vortexed for 2 min at 4 °C. Beads and cell debris were removed using 5 min centrifugation at 1000× g and 4 °C, followed by 20 min of centrifugation at 10,000× g at 4 °C. Cell lysates containing proteasomes were resuspended in “activity buffer” [50 mM TRIS-HCl (pH 7.4), 5 mM MgCl2, 1 mM DTT, 2 mM ATP (≥98% purity, Enzo Life Sciences Inc., Farmingdale, NY, USA), and 500 µM EDTA (≥98% purity, Merck, Hamburg, Germany)]. Protein concentration was determined using the Pierce™ BCA protocol (Thermo Fisher Scientific, Rockford, IL, USA). […] DMSO was added in an equal volume as used for the untreated compounds as a way to assess/control its influence in the assay. Untreated cells were used as control. In each well of a 96-well plate, 25 µL of lysate were seeded in duplicate with 25 µL of the compound to test; in the control, 25 µL of activity buffer were added to the 25 µL of lysate. A blank (50 µL of activity buffer) was added to the wells in quadruplicate. Cell lysates, pre-treated or not with different concentrations of the test compounds, were incubated for 30 min at 37 °C. […] Stock solutions (10 mM) of each substrate were prepared in DMSO, diluted in activity buffer, and 50 µL were added to all wells (final concentration of each substrate = 100 µM), followed by an incubation at 37 °C for 60 min. Samples fluorescence was measured at an excitation wavelength of 360 nm and emission of 465 nm; the fluorescence measures were performed using the GloMax-Multi + Detection System (Promega Corp., Madison, WI, USA). Activity was evaluated in fluorescence units, after being converted to percentage of proteasome inhibition and, whenever possible, expressed as IC50 by plotting the inhibition data of each compound at different concentrations against the log of the concentration of the inhibitor, using the GraphPad Prism software version 7. At least eight different concentrations of the test compounds were used.

Data set [4] deals with T2, 20S proteasome in HCT116 cell lysates, CT-L activity (Homo sapiens, UniProt P28074).
T2 sequence (P28074 60-263): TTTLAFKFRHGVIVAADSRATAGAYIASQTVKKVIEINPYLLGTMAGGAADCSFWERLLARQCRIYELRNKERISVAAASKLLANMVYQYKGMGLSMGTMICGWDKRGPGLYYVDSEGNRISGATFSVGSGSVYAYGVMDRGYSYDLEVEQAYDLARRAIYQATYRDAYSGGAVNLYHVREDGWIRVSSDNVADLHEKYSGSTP
T2 sequence (P20618 29-241 partner): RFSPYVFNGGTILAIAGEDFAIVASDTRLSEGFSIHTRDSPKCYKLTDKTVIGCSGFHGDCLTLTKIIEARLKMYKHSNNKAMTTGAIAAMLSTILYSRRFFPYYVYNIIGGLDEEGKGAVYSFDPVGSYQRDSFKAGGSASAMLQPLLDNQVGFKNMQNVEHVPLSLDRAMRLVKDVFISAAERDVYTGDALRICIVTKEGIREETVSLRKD
Put plainly: Proteasome inhibition assay in cell lysates, HCT116, CT-L. As to conditions: for percentage of proteasome inhibition, CT-L, cell lysates HCT116: at 100 µM; for percentage of proteasome inhibition, CT-L, cell lysates HCT116 / inhibition at 100 µM: Table 2 legend: bortezomib 10 µM; for inhibition at 100 µM: read-out: percentage of proteasome inhibition, CT-L, cell lysates HCT116, at 100 µM; for inhibition at 10 µM: read-out: percentage of proteasome inhibition, CT-L, cell lysates HCT-116, at 10 µM.
Description: as §4

Where [5] appears, read: at 100 µM, Table 2 legend: bortezomib 10 µM.
The mark [6] stands for this setting: Table 2 legend: bortezomib 10 µM.

`CC(C)C[C@H](NC(=O)[C@H](Cc1ccccc1)NC(=O)c1cnccn1)B(O)O` [Bortezomib, bortezomib, reference compound]: the viability at 72 h, 10 µM in data set [1] and in data set [2] was 0% throughout. Moreover, the viability at 72 h, 100 µM in data set [1] and in data set [2] was 0% throughout. The IC50 with HCT116 cells was determined as 0.0107 µM; in the data set on Jurkat cells it was 0.00648 µM. The “percentage of proteasome inhibition, C-L, cell lysates HT-29” value (from here on “percentage of proteasome inhibition, C-L”) is 92.93% in data set [3] (at 10 µM); 99.05% and 99% in data set [3] (setting [5]). In addition, the “percentage of proteasome inhibition, CT-L, cell lysates HCT-116” value in data set [4] (at 10 µM) is recorded as 97.94%. For the same compound, in data set [4], the “percentage of proteasome inhibition, CT-L, cell lysates HCT116” value was 99.14% and 99%.

Regarding `Cc1ccc2ccccc2c1CSc1ncnc2c1ncn2C1OC(CO)C(O)C1O` (stereo not shown) [Compound 1], in data set [1], the viability at 72 h, 10 µM came out at 95.5% and the viability at 72 h, 100 µM was determined as 24%. In the data set on HCT116 cells, this compound registered a half-inhibitory concentration (IC50) of 65.7 µM. Moreover, in the data set on Jurkat cells, half-maximal inhibition (IC50) was put at 36.8 µM and the “percentage of cell viability, MTT, Jurkat” value (from here on “percentage … Jurkat”) was found to be 21%. In data set [2], the viability at 72 h, 10 µM was found to be 98.7% and the viability at 72 h, 100 µM was 21%. In data set [3], the half-maximal inhibitory concentration (IC50) turned out to be 79.4 µM and the inhibition at 10 µM is 0%. In addition, the “percentage of proteasome inhibition, C-L” value in data set [3] (setting [5]) is recorded as 76%. In addition, in data set [3] (setting [6]), the inhibition at 100 µM was determined as 76%. For the same compound, in data set [4], the IC50 came out at 76.4 µM; the “percentage of proteasome inhibition, CT-L, cell lysates HCT116” value turned out to be 90%; the inhibition at 100 µM worked out at 90.2%; the inhibition at 10 µM amounted to 0%.

Turning to `O=C1c2ccccc2C(=O)c2c(Nc3ccc(S(=O)(=O)N(CCO)CCO)cc3)ccc(O)c21` [Compound 2], in data set [1], the viability at 72 h, 10 µM was 98% and the viability at 72 h, 100 µM worked out at 89.1%. Further, in the data set with HCT116 cells, the “percentage of cell viability, MTT, HCT116” value (“percentage … MTT, HCT116” below) amounted to 89%. Besides, in the data set with Jurkat cells, the “percentage … Jurkat” value turned out to be 77%. Besides, in data set [2], the viability at 72 h, 10 µM turned out to be 80.2% and the viability at 72 h, 100 µM came out at 77.2%. For the same compound, in data set [3], the IC50 turned out to be 62.1 µM and the inhibition at 10 µM was 6.78%. For the same compound, in data set [3] (setting [5]), the “percentage of proteasome inhibition, C-L” value was 69%. Also, the inhibition at 100 µM in data set [3] (setting [6]) was found to be 69.2%. Also, in data set [4], inhibition was half-maximal at 50.9 µM (IC50); the “percentage of proteasome inhibition, CT-L, cell lysates HCT116” value came out at 74%; the inhibition at 100 µM was determined as 74.2%; the inhibition at 10 µM worked out at 6.93%.

As for `Cc1ccc(/C(=N/NS(=O)(=O)c2ccc([N+](=O)[O-])cc2)Sc2cc(Cl)c(C)cc2S(N)(=O)=O)cc1` [Compound 3], in data set [1], the viability at 72 h, 10 µM came to 100% and the viability at 72 h, 100 µM turned out to be 95.2%. For the same compound, the “percentage … MTT, HCT116” value in the data set with HCT116 cells was found to be 95%. In the data set on Jurkat cells, the “percentage … Jurkat” value is listed as 86%. In data set [2], the viability at 72 h, 10 µM amounted to 98.1% and the viability at 72 h, 100 µM came to 86%. Further, in data set [3] (setting [5]), the “percentage of proteasome inhibition, C-L” value was 19%. The inhibition at 10 µM in data set [3] stood at 0%. In addition, the inhibition at 100 µM in data set [3] (setting [6]) was 18.6%. Also, in data set [4], the “percentage of proteasome inhibition, CT-L, cell lysates HCT116” value is 33%; the inhibition at 100 µM was 33%; the inhibition at 10 µM came out at 0%.

Consider `C#CCCN1CCN(c2ccc(-n3c(=O)ccc4cnc5ccc(-c6ccc(N)nc6)cc5c43)cc2C(F)(F)F)CC1` [Compound 4, 9-(6-Aminopyridin-3-yl)-1-(4-(4-(but-3-yn-1-yl)piperazin-1-yl)-3-(trifluoromethyl)phenyl)benzo[h][1,6]naphthyridin-2(1H)-one], for which the viability at 72 h, 10 µM turned out to be 38.4% in data set [1] and 23.3% in data set [2]. Further, the viability at 72 h, 100 µM in data set [1] and in data set [2] was 0% in each case. Also, the IC50 with HCT116 cells came to 1.02 µM; in the data set with Jurkat cells it was 1.37 µM; in data set [3], 35.2 µM; in data set [4] it was 35.7 µM. For the same compound, the “percentage of proteasome inhibition, C-L” value in data set [3] (setting [5]) was 82%. In addition, the inhibition at 10 µM in data set [3] was found to be 0%; in data set [4], 22.1%. The inhibition at 100 µM amounted to 82.1% in data set [3] (setting [6]) and 98% in data set [4]. In addition, the “percentage of proteasome inhibition, CT-L, cell lysates HCT116” value in data set [4] was 98%.

As to `CC(C)c1nc(CN(C)C(=O)N[C@@H](CCN2CCOCC2)C(=O)N[C@H](CC[C@H](Cc2ccccc2)NC(=O)OCc2cncs2)Cc2ccccc2)cs1` [Compound 5, cobicistat, reference compound], the viability at 72 h, 10 µM amounted to 98.7% in data set [1] and 93.3% in data set [2]. Besides, the viability at 72 h, 100 µM in data set [1] was determined as 23.7%; in data set [2], 0%. Besides, the IC50 with HCT116 cells turned out to be 58.4 µM; in the data set on Jurkat cells, 43.8 µM; in data set [4], 95.9 µM. Moreover, in the data set with HCT116 cells, the “percentage … MTT, HCT116” value stood at 24%. In addition, the “percentage of proteasome inhibition, C-L” value in data set [3] (setting [5]) was found to be 29%. In addition, the inhibition at 10 µM in data set [3] and in data set [4] was 0% each time. Further, the inhibition at 100 µM in data set [3] (setting [6]) is 29.3%; in data set [4], 66.9%. For the same compound, in data set [4], the “percentage of proteasome inhibition, CT-L, cell lysates HCT116” value stood at 67%.
